Assay results: PMC9721090 (FASEB BioAdvances, 2022)
Where a name gives a salt, the structure may show the parent alone.

Columns and labels:
[1] = biological target: T1, β2AR-βarr2 (Homo sapiens, UniProt P07550+P32121); assay: ERK1/2 phosphorylation; type: cell-based; settings: t β2AR-βarr2 HEK 293; PTX 100ng/ml overnight
[2] = biological target: β2AR-Gαs (Homo sapiens, UniProt P07550); assay: Saturation binding of [3H] DHA, membranes of t β2AR-Gαs HEK 293 cells
[3] = biological target: β2AR (Homo sapiens, UniProt P07550); type: binding
Chain of β2AR (P07550 whole entry): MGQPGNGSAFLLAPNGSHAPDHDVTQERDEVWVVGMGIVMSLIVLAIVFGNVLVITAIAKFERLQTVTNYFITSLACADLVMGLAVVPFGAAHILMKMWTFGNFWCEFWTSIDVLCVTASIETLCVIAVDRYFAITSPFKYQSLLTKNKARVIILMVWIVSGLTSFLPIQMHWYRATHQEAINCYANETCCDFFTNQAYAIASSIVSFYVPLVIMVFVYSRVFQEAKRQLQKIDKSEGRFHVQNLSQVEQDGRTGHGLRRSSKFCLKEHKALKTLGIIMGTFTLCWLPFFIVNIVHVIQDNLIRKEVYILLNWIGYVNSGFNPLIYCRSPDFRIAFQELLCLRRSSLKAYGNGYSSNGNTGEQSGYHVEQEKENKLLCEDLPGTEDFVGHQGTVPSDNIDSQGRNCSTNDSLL

[4] = biological target: T1, β2AR-βarr2; assay: Saturation binding of [3H] DHA, membranes of t β2AR-βarr2 HEK 293 cells

Compound	effect on constitutive ERK1/2 phosphorylation [1]	Kd [2] [nM]	Kd [3] [nM]	Kd [4] [nM]
pertussis toxin	no effect	–	–	–
CCCc1ccccc1OC[C@@H](O)CNC(C)C [[3H] dihydroalprenolol, Dihydroalprenolol hydrochloride, levo‐[ring, propyl‐^3H(N)]‐]	–	0.213 ± 0.049	0.148 ± 0.028	0.233 ± 0.022
